Earlier results in patent US20210228489A1, “COMPOSITIONS FOR TREATING CYSTIC FIBROSIS” (Vertex Pharmaceuticals Incorporated, priority 2017, published 2021).

Tested on: CFTR
Details: CFTR modulator; disclosed in PCT Publication No. WO 2016/057572

CC(C)COc1cc(F)cc(-c2ccc(C(=O)NS(=O)(=O)c3cccc(N)n3)c(N3C[C@@H](C)CC3(C)C)n2)c1 [Compound I, N-[(6-amino-2-pyridyl)sulfonyl]-6-(3-fluoro-5-isobutoxy-phenyl)-2-[(4S)-2,2,4-trimethylpyrrolidin-1-yl]pyridine-3-carboxamide]
EC30: < 3 µM
